The test deals with T1, recombinant N-terminal MLH1 (residues 15-340) (Homo sapiens, UniProt P40692).
T1 construct: recombinant N-terminal MLH1 (residues 15-340)
T1 sequence (P40692 15-340): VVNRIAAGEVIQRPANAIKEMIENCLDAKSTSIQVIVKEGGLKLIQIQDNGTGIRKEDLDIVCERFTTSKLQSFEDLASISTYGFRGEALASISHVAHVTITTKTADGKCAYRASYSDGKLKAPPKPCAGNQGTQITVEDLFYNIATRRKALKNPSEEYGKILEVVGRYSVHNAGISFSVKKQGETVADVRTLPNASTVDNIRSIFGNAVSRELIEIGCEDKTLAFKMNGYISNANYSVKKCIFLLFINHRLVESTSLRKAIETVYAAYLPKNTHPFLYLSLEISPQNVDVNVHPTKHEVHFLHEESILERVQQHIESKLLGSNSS
The test is described as follows: Fluorescence Polarisation Assay for MLH1. The test is classed as binding. The settings on record: 100 nM N-terminal MLH1, 5 nM probe compound. In outline: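 Fluorescence polarisation displacement: 100 nM MLH1 (15-340) preincubated 30 min at room temperature with compound, then 5 nM rhodamine-labelled probe added and read immediately. Buffer 25 mM HEPES pH 7.5, 250 mM NaCl, 10 mM MgCl2, 0.01% Triton X-100, 5 mM DTT; normalised to no-inhibitor and no-enzyme controls.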
In general terms: Polarisation of emitted light reports the rotation of a fluorescent probe.

The IC50 is the concentration that gives 50% inhibition.

For `N#Cc1cc(O)c(C(=O)N2Cc3cccc(N[C@H]4CCOC4)c3C2)c(OCc2ccccn2)c1` [Example 10.39, (S)-3-Hydroxy-5-(pyridin-2-ylmethoxy)-4-(4-((tetrahydrofuran-3-yl)amino)isoindoline-2-carbonyl)benzonitrile], the IC50 lay within 0.1 to 1 µM.
Then `N#Cc1cc(O)c(C(=O)N2Cc3cccc(N[C@H]4CCOC4)c3C2)c(OCc2ccccc2)c1` [Example 12, (S)-3-(Benzyloxy)-5-hydroxy-4-(4-((tetrahydrofuran-3-yl)amino)isoindoline-2-carbonyl)benzonitrile], with 0.1 to 1 µM; and `COc1cc(C#N)cc(O)c1C(=O)N1Cc2cccc(N[C@H]3CCOC3)c2C1` [Example 12.1, (S)-3-Hydroxy-5-methoxy-4-(4-((tetrahydrofuran-3-yl)amino)isoindoline-2-carbonyl)benzonitrile], with 1 to 10 µM.
Then `N#Cc1cc(O)c(C(=O)N2Cc3cccc(N[C@H]4CCOC4)c3C2)c(OCC2CC2)c1` [Example 12.2, (S)-3-(Cyclopropylmethoxy)-5-hydroxy-4-(4-((tetrahydrofuran-3-yl)amino)isoindoline-2-carbonyl)benzonitrile], with 1 to 10 µM.
Next, `N#Cc1cc(O)c(C(=O)N2Cc3cccc(N[C@@H]4CCOC4)c3C2)c(OCc2ccccc2)c1` [Example 12.3, (R)-3-(Benzyloxy)-5-hydroxy-4-(4-((tetrahydrofuran-3-yl)amino)isoindoline-2-carbonyl)benzonitrile]: 1 to 10 µM; `N#Cc1cc(O)c(C(=O)N2Cc3ccccc3C2)c(OCc2ccccc2)c1` [Example 12.4, 3-(Benzyloxy)-5-hydroxy-4-(isoindoline-2-carbonyl)benzonitrile]: 1 to 10 µM.
In the case of `COc1ccc2c(c1)CN(C(=O)c1c(O)cc(C#N)cc1OCc1ccccc1)C2` [Example 13, 3-(Benzyloxy)-5-hydroxy-4-(5-methoxyisoindoline-2-carbonyl)benzonitrile], the IC50 was 1 to 10 µM.
On to `CN(C)CCOc1cc2c(c(N[C@@H]3CCOC3)c1)CN(C(=O)c1c(O)cc(C#N)cc1OCc1ccccc1)CC2` [Example 14, (R)-3-(Benzyloxy)-4-(6-(2-(dimethylamino)ethoxy)-8-((tetrahydrofuran-3-yl)amino)-1,2,3,4-tetrahydroisoquinoline-2-carbonyl)-5-hydroxybenzonitrile], for which the IC50 lay within 0.1 to 1 µM.
Next, `CN(C)CCOc1cc2c(c(N[C@H]3CCOC3)c1)CN(C(=O)c1c(O)cc(C#N)cc1OCc1ccccc1)CC2` [Example 15, (S)-3-(Benzyloxy)-4-(6-(2-(dimethylamino)ethoxy)-8-((tetrahydrofuran-3-yl)amino)-1,2,3,4-tetrahydroisoquinoline-2-carbonyl)-5-hydroxybenzonitrile]: below 0.1 µM; `CC(=O)N1CC(Nc2cccc3c2CN(C(=O)c2c(O)cc(C#N)cc2OCc2ccccc2)C3)C1` [Example 16, 4-(4-((1-Acetylazetidin-3-yl)amino)isoindoline-2-carbonyl)-3-(benzyloxy)-5-hydroxybenzonitrile]: 0.1 to 1 µM; `N#Cc1cc(O)c(C(=O)N2CCc3cccc(N[C@H]4CCOC4)c3C2)c(OCc2ccccc2)c1` [Example 17, (S)-3-(Benzyloxy)-5-hydroxy-4-(8-((tetrahydrofuran-3-yl)amino)-1,2,3,4-tetrahydroisoquinoline-2-carbonyl)benzonitrile]: 0.1 to 1 µM.
`CN(C)CCOc1cc2c(c(N[C@@H]3CCOC3)c1)CN(C(=O)c1c(O)cc(C#N)cc1OCc1ccccc1)C2` [Example 18, (R)-3-(Benzyloxy)-4-(6-(2-(dimethylamino)ethoxy)-4-((tetrahydrofuran-3-yl)amino)isoindoline-2-carbonyl)-5-hydroxybenzonitrile]: the IC50 was 0.1 to 1 µM.
Consider `CN(C)CCOc1cc2c(c(N[C@H]3CCOC3)c1)CN(C(=O)c1c(O)cc(C#N)cc1OCc1ccccc1)C2` [Example 19, (S)-3-(Benzyloxy)-4-(6-(2-(dimethylamino)ethoxy)-4-((tetrahydrofuran-3-yl)amino)isoindoline-2-carbonyl)-5-hydroxybenzonitrile], for which the IC50 lay in the range of 0.1 to 1 µM.

The values are drawn from patent publication US20260217687A1 (NeoPhore Limited, priority 2023, published 2026).
